The source of these data is PMC9279632 (Acta Pharmaceutica Sinica. B, 2021).

Data set [1] addresses NS2B−NS3 interactions (NLuc-NS2B49−66 / GST-CLuc-NS3) (Dengue virus type 2, UniProt P29990). Put plainly: Split luciferase complementation. The data set is classed as binding.
Another data set concerns ZIKV PRVABC59. Put plainly: PFU viral plaque reduction assay in A549 cells. The note with it: Zika virus, A549, read-out: EC50 (anti-ZIKV). The format is cell-based. (Plaque reduction counts the foci of infection that form in a cell layer.)
Data set [2] deals with T1, NS2B−NS3 protease (His-tagged NS2B / DENV2 NS3-MBP fusion protein) (Dengue virus type 2, UniProt P29990).
T1 sequence (P29990 1476-1653 limits assumed): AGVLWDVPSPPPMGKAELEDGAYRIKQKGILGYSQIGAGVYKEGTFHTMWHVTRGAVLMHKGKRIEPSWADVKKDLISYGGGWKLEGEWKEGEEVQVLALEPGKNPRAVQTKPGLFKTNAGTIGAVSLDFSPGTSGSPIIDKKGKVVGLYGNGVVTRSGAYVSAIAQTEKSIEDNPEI
In words: NS2B−NS3 protease inhibition assay with FRET substrate. The data set is classed as biochemical.

In data set [3] the test system is 3D mini-forebrain organoid. Put plainly: Toxicity to 3D mini-forebrain organoid. The data set is classed as cell-based, human. Conditions: Fig. S2; organoids fell apart and lost clear boundary.
For data set [4] the following is noted: cited from earlier work.
Setting [5] is: IC50-SLC (NS2B–NS3 interaction), split luciferase complementation, n = 3.

Sequence of NS2B−NS3 interactions (NLuc-NS2B49−66 / GST-CLuc-NS3) (P29990 1476-1660): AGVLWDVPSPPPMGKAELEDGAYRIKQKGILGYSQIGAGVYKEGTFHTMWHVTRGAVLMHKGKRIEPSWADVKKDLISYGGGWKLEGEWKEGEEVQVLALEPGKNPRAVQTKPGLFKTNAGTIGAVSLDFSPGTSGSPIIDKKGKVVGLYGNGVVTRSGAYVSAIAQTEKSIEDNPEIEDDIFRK

Regarding `O=C1OC2(c3ccccc31)c1ccc(O)c(Br)c1Oc1c2ccc(O)c1Br` [JMX0893, 4′,5′-dibromo-3′,6′-dihydroxy-3H-spiro[isobenzofuran-1,9′-xanthen]-3-one], the IC50 is 16 µM in data set [1] (setting [5]) and over 60 µM in data set [2]. For the same compound, in the data set on ZIKV PRVABC59, the EC50 is over 15 µM.

On to `O=C1OC2(c3cc(Cl)c(O)cc3Oc3cc(O)c(Cl)cc32)c2ccccc21` [JMX0897, 2′,7′-Dichloro-3′,6′-dihydroxy-3H-spiro[isobenzofuran-1,9′-xanthen]-3-one], for which the IC50 in data set [1] (IC50-SLC) is about 50 µM; in data set [1] (setting [5]) it was 48 µM; in data set [2], 23 µM. Further, the EC50 with ZIKV PRVABC59 is over 15 µM.

With `O=C1OC2(c3ccccc31)c1cc(Br)c(O)c(Br)c1Oc1c2cc(Br)c(O)c1Br` [JMX0911, 2′,4′,5′,7′-tetrabromo-3′,6′-dihydroxy-3H-spiro[isobenzofuran-1,9′-xanthen]-3-one], the midpoint of inhibition in data set [1] (setting [5]), the IC50, lay at 3.4 µM. For the same compound, in the data set on ZIKV PRVABC59, the EC50 is over 15 µM.

Consider `O=C1OC2(c3ccccc31)c1ccc(O)c(I)c1Oc1c2ccc(O)c1I` [JMX0903, Sodium 4′,5′-diiodo-3-oxo-3H-spiro[isobenzofuran-1,9′-xanthene]-3′,6′-bis(olate)], for which the IC50 is 15 µM in data set [1] (setting [5]) and 60 µM in data set [2]. Moreover, the EC50 in the data set with ZIKV PRVABC59 is over 15 µM.

For `O=C1OC2(c3cc(I)c(O)c(I)c3Oc3c2cc(I)c(O)c3I)c2c(Cl)c(Cl)c(Cl)c(Cl)c21` [JMX0902, Sodium 4,5,6,7-tetrachloro-2′,4′,5′,7′-tetraiodo-3-oxo-3H-spiro[isobenzofuran-1,9′-xanthene]-3′,6′-bis(olate)], the concentration for half-maximal inhibition (IC50) in data set [1] (setting [5]) was found to be 0.43 µM; in data set [2], 2.6 µM. Also, the EC50 in the data set on ZIKV PRVABC59 was 0.3 µM.

For `Oc1cccc(-c2c3nc(c(-c4cccc(O)c4)c4ccc([nH]4)c(-c4cccc(O)c4)c4nc(c(-c5cccc(O)c5)c5ccc2[nH]5)CC4)C=C3)c1` [temoporfin], the “toxicity to 3D organoids (morphology)” value in data set [3] was “significant toxicity”. Also, the cellular cytotoxicity result in data set [4] is reported as “moderate cellular cytotoxicity”.

Regarding `O=C1OC2(c3ccc(O)cc3Oc3cc(O)ccc32)c2ccccc21` [JMX0915, 3′,6′-Dihydroxy-3H-spiro[isobenzofuran-1,9′-xanthen]-3-one], the IC50 in data set [1] (IC50-SLC) was over 50 µM; in data set [1] (setting [5]), over 100 µM; in data set [2], over 100 µM. Further, the EC50 in the data set on ZIKV PRVABC59 is over 15 µM.

`O=C(O)c1ccc2c(c1)C(=O)OC21c2ccc(O)cc2Oc2cc(O)ccc21` [JMX0920, 3′,6′-Dihydroxy-3-oxo-3H-spiro[isobenzofuran-1,9′-xanthene]-5-carboxylic acid]: the IC50 is over 50 µM in data set [1] (IC50-SLC), 53 µM in data set [1] (setting [5]) and over 100 µM in data set [2]. Besides, the concentration giving a half-maximal response (EC50) with ZIKV PRVABC59 is over 15 µM.

Regarding `O=C1OC2(c3ccc(O)cc3Oc3cc(O)ccc32)c2ccc(NC(=S)NCCS)cc21` [JMX0912, 1-(3′,6′-Dihydroxy-3-oxo-3H-spiro[isobenzofuran-1,9′-xanthen]-5-yl)-3-(2-mercaptoethyl)thiourea], the half-inhibitory concentration (IC50) is over 50 µM in data set [1] (IC50-SLC), over 100 µM in data set [1] (setting [5]) and 88 µM in data set [2]. Further, in the data set with ZIKV PRVABC59, the EC50 was over 15 µM.

Consider `O=C1OC2(c3ccccc31)c1ccc(O)c(Cl)c1Oc1c2ccc(O)c1Cl` [JMX0892, 4′,5′-Dichloro-3′,6′-dihydroxy-3H-spiro[isobenzofuran-1,9′-xanthen]-3-one], for which the IC50 is about 50 µM in data set [1] (IC50-SLC), 50 µM in data set [1] (setting [5]) and over 60 µM in data set [2]. Also, the half-maximal effective concentration (EC50) in the data set on ZIKV PRVABC59 is over 15 µM.

In general, IC50 refers to the midpoint of a concentration-inhibition curve. High values mean weaker potency in that assay, low ones greater potency in that assay. In general, EC50 refers to the concentration at which the effect is half-maximal.
